Data from EP0147146A2, “Enhancement of transdermal drug delivery” (AMERICAN HOME PRODUCTS CORPORATION, priority 1983, dated 1985).
Counter-ions that a name gives are not always drawn. Blank lines part the entries; values can stand above or below the compound they belong to.

Test: in-vitro percutaneous transfer test with nude mouse skin in a diffusion cell
Assay type: in vitro ADME
Description: The test formulation was first impregnated into 1-inch diameter circles of a thin non-woven rayon fabric usually in amounts representing about 20 mg or more per cm^2 of skin. The impregnated fabric was applied to the outside or epidermal side of the skin while the inside or tissue side of the skin was exposed to an aerated and stirred volume of Ringer's injection fluid maintained at about 37° C. Samples were taken at intervals from the stirred solution and assayed for drug content. The calculated total amount of percutaneously transferred drug is expressed as mg drug per cm^2 of exposed skin.
Two circles of non-woven fabric were impregnated with each formulation (designated A1, A2 and B1, B2 respectively) and tested for percutaneous drug transfer across nude mouse skin.
Two circles of nonwoven fabric were impregnated with each formulation, so as to contain 2-3 mg of conjugated estrogens. These were applied to nude mouse skins (6 em^2 exposed surface) for transdermal penetration tests. The average of duplicate tests is given below, in units of µg of transferred estrogen per cm^2 of exposed skin surface.

Compound: C[C@]12CC[C@@H]3c4ccc(OS(=O)(=O)O)cc4CC[C@H]3[C@@H]1CC[C@@H]2O [17-B -estradiol-3-sodium sulfate]
flux rates of formulations containing menthol: significantly higher flux rates

increase in percutaneous transfer in the presence of menthol (with vs without 5% menthol in a glycerol/propylene glycol vehicle, nude mouse skin): about a three fold increase
Compound: CCc1cccc2c3c([nH]c12)C(CC)(CC(=O)O)OCC3 (stereo not drawn) [etodolac, 1.8-diethyl-1,3,4,9-tetrahydropyrano[3,4-b] indole-1-acetic acid]

Compound: C[C@]12CC[C@@H]3c4ccc(O)cc4CC[C@H]3[C@@H]1CC[C@@H]2O [17-β -estradiol]
percutaneous transfer with and without menthol (lipophilic vehicles, nude mouse skin): no significant differences
